From patent publication US10035791B2, “Bicyclic compound and pharmaceutical composition thereof for treating stroke and use thereof” (China Medical University, priority 2016, dated 2018)
“Also recorded” adds a separate entry of the source.

Key:
[1] = system: primary cortical cultures (PCCs); test: Lactate dehydrogenase (LDH) release rate analysis, H2O2-treated PCCs; type: cell-based, C57BL/6 mice
Experimental: H2O2 can cause an oxidative damage to cells and a destruction of the cell membrane, and consequently the LDH is released into medium. For that reason, the lower rate of the LDH released into the culture medium is represented the fewer damaged cells and better cell protection effect of sample.
(§1) Test cells are primary cortical cultures (PCCs) in this example. The PCCs are prepared from cerebral cortexes of gestation day 17 embryos from C57BL/6 mice as described previously (Cell Death Differ 2008; 15: 143-151). The PCCs are maintained under serum-free conditions in neurobasal medium (Invitrogen), supplemented with B-27 supplement (2%; invitrogen), glutamine (0.5 mM; Sigma Aldrich), glutamate ([…]; Sigma Aldrich), penicillin (100 U/ml) and streptomycin ([…]; Invitrogen). At 4 days in vitro, half of the medium is removed and replaced with fresh medium without glutamate. The cultures are maintained in a humidified incubator at 37° C. with 5% CO2. At 7 days in vitro, the PCCs are used for experimentation.
The PCCs are seeded in a 24-well plate and are allowed to stand for 20 minutes. […] The PCCs are maintained at 37° C. in a humidified atmosphere of 5% CO2 for 24 hours. After incubation, the culture medium is collected and washed twice with phosphate buffered saline (PBS), and then are analyzed the LDH activity in the culture medium by using LDH Cytotoxicity Detection Kit (TaKaRa Bio Laboratories, Japan) to calculate the percentage cytotoxicity, which is represented the situation of cells damage, of the PCCs. The lower percentage cytotoxicity presents the lower LDH activity detected and less severe of cells damages, which indicates the better cell protection effect of the sample. The LDH activity is measured by a colorimetry. After a reaction between enzyme and particular substrate, an absorbance of the reaction solution and the LDH activity is linearly correlated. The LDH activity (U/10^−3 L) is calculated by a reduced optical density slope at a wavelength of 340 nm within three minutes. A lactate dehydrogenase activity unit is defined as a catalytic consumption of […] NADH per minute.

NSCs = test: Neurosphere self-renewal assay of the NSCs; type: cell-based, mice; conditions: 0.1, 1, 10 μM for 16 hours vs control group, especially 1 μM
Experimental: To determine whether the HIF-1α-Bmi-1 pathway regulates the proliferation of the NSCs a neurosphere self-renewal assay is performed in this example. In the neurosphere self-renewal assay, the NSCs are cultured in non-adherent cultures to form neurospheres for examining the effect of the HIF-1α-Bmi-1 pathway on the self-renewal of the neurosphere.
To prepare the NSCs, after removal of meninges, subventricular zones (SVZ) of lateral ventricles from adult mice brain (4 week-of-age) are aseptically isolated and dissociated as previously described (J Cell Sci 2006; 119, 4467-4474). All steps are operated under sterile conditions. Then, neurosphere culture are prepared in neurobasal (NB) medium (Gibco BRL) supplemented with 2% of B27 (Gibco BRL), 2 mM of L-glutamine (PAN Biotech), 100 U/ml of penicillin/0.1 mg/L of streptomycin (Gibco BRL). For maintenance and expansion of the cultures, the NB/B27 is further supplemented with 2 μg/mL of heparin (Sigma), 20 ng/mL of FGF-2 (R&D Systems) and 20 ng/mL of EGF (R&D Systems). Neurosphere cultures are maintained at 37° C. in a humidified incubator with 5% CO2. For clonal/low density cultures, primary neurospheres grown at high density are dissociated into a single cell suspension and reseeded into 96-well plates at 100 cells per ml of media and the number of newly formed neurospheres is counted after 7 days. In addition, the Bmi-1 expressions, SOX2 expressions, Nestin expressions, Musashi-1 expressions, BrdU expressions and ki-67 expressions of the newly formed neurospheres are determined by the immunofluorescence staining.
In another example, the NSCs are treated with different dosages of the Compound 1 (0.1 μM, 1 μM and 10 μM) for 16 hours, wherein the NSCs treated with 1 μM of the Compound 1 are further transduced with the LV-Bmi-1-sh or LV-HIF-1α-sh respectively. Then the NSCs are cultured in the neurosphere culture to observe the frequency of the neurosphere formation, the self-renewal potential of the NSCs and the neurosphere size. […]

ischemic rats = test: Grip strength test; type: in vivo, Sprague-Dawley (SD) rats; conditions: 1 mg/kg, vs control group, FIG. 20
Excerpt: The ischemic rats are induced by an ischemia-reperfusion model to simulate transient focal cerebral ischemia in rats. Test animals are male Sprague-Dawley (SD) rats weighing 250-300 g. The rats are anesthetized with chloral hydrate (0.4 g/kg IP) and subjected to cerebral ischemia. The ischemia-reperfusion model is induced by ligations of bilateral common carotid arteries (CCAs) and a right middle cerebral artery (MCA). The bilateral CCAs are clamped with non-traumatic arterial clips, and the right MCA is ligated with an 10-0 nylon suture. After 90 minutes ischemia, the suture on the MCA and the arterial clips on CCAs are removed to allow reperfusion. Core body temperature is monitored with a thermistor probe (Hewlett-Packard Model 21090A probe, Hewlett-Packard Company, Andover, Mass.), and maintained at 37° C. with a heating pad during anesthesia. […]
The grip strength is analyzed using Grip Strength Meter (TSE-Systems). In brief, the grip strength of each forelimb of the ischemic rat is measured separately from the mean of 20 pulls, and the ratio of ipsilateral grip strength to contralateral grip strength is calculated. In addition, the ratio of grip strength post-cell-treatment and pre-cell-treatment is also calculated, and the changes are presented as a percentage of the pre-cell-treatment value.

HIF-1α = test: Nuclear translocation of the HIF-1α in the PCCs under hypoxia, double immunofluorescence; type: cell-based, C57BL/6 mice; conditions: 1 μM 2-ME2 for 16 hours, then 1% O2 for 8 hours, FIG. 6A
Experimental: as §1
The subcellular locations of the HIF-1α and the Bmi-1 in the PCCs under hypoxia are examined by double immunofluorescence study. The PCCs are divided into three groups. One group is cultured with 21% of O2 as a control group. Another group is cultured with 1% of O2 for 8 hours as a hypoxic group. The other group is treated with 1 μM of 2-ME2 for 16 hours and then cultured with 1% of O2 for 8 hours as a 2-ME2 treated hypoxic group.

SMILES	LDH release rate of the PCCs treated with H2O2 ([1]; compound 0.1 μM, FIG. 1G) [%]	LDH release rate of the PCCs treated with H2O2 ([1]; compound 100 μM, 10^-4 mol/L H2O2, 24 hours, FIG. 1F)	concentration at which the LDH release rate of the PCCs is reduced most ([1]; tested 0.1, 1, 10 and 100 μM, FIG. 1G) [µM]	frequency of the neurosphere formation (NSCs; FIG. 11F)	self-renewal potential of the NSCs (NSCs; FIG. 11G)	neurosphere size (NSCs; FIG. 11H)	grip strength ratio (ischemic rats)	translocation of the HIF-1α to the nucleus under hypoxia (HIF-1α)
COC(=O)C1=CO[C@@H](O)[C@@H]2C(COC(=O)[C@@H](N)Cc3ccccc3)=CC[C@H]12 [Compound 1]	30	lower LDH release rate; also recorded: reduces most LDH release rate	100	significantly higher frequency of the neurosphere formation	more self-renewal potential	larger neurosphere size	much better	
COc1cc2c(cc1O)CC[C@@H]1[C@@H]2CC[C@]2(C)[C@@H](O)CC[C@@H]12 [Compound 2-ME2, 2-Methoxyestradiol, reference compound]								abolishes the translocation
